Measured values reported in patent US20040224995A1 (University of North Texas Health Science Center at Fort …, priority 2003, published 2004).

What was measured:
[1] = tested on: HT-22 cells; assay: HT-22 cell viability during glutamate exposure (calcein AM assay); format: cell-based; conditions: for neuroprotection after withdrawal of compound-containing medium: 24 h preincubation, medium washed away, then glutamate (15 mM); for concentration at which toxicity was observed: HT-22, glutamate experiments; for neuroprotection against glutamate insult (cell viability): HT-22, 24 h preincubation before glutamate
From the text: Although not wanting to be bound by theory, the toxicity of glutamate in HT-22 (32) and C6 glioma (33) cell lines is mediated through oxidative stress. HT-22 cells lack ionotropic N-methyl-D-aspartate (“NMDA”) glutamate receptors, and the glutamate-induced cell death appears to occur via a slow onset oxidative stress (32,34,35). Glutamate blocks cystine uptake by inhibiting the glutamate/cystine antiporter in both HT-22 (32) and C6 glioma (33) cell lines. Since cysteine is required for glutathione (“GSH”) synthesis, the intracellular concentration of GSH decreases as a consequence. BSO depletes intracellular glutathione by inhibiting γ-glutamylcysteine synthetase, the rate-limiting enzyme in glutathione synthesis (33). […] Troglitazone further protected HT-22 (FIG. 14) and RGC-5 (FIG. 15) against BSO. The cell viability was taken at time points around about 14 to 24 hours post-insult time. In some of the experiments, the viability of cells was determined using 2.5 μM calcein AM assay in phosphate-buffered saline (PBS 1×). After 25 minutes of incubation, live cells were distinguished by the presence of intracellular esterase activity, which cleaves the calcein AM dye, producing a bright green fluorescence, as shown in FIG. 22. Viability was measured in Relative Fluorescent Units (“RFU”), and expressed as percentage of vehicle-treated control values.
15d-PGJ2 and two TZD's (e.g. troglitazone and ciglitazone) were tested for their ability to protect HT-22 cells against glutamate toxicity. […] HT-22 cells were treated with 15-dPGJ2 twenty-four hours prior to a glutamate insult (15 mM). […] The data of FIG. 24 was quantified using the calcein AM assay (see FIG. 22). Results are expressed in % survival of the control (non-glutamate-treated) cultures. DMSO received the vehicle only for 15d-PGJ2. Shown are mean±SEM for 6. The asterisk (“*”) indicates p<0.05 vs. respective control.
In order to conduct these experiments, the following compounds: PGA1; PGA2; PGJ2; Δ^12PGJ2; and 15d-PGJ2 were ordered from Biomol, Plymouth Meeting, Pa. HT-22, an immortalized mouse hippocampal cell line, C6 rat glioma, RGC-5 retinal ganglion cells were used. Cells were grown to confluence in DMEM media, and supplemented with 10% charcoal/dextran-treated fetal bovine serum (“FBS”), and […] gentamycin at 37° C. under 95% air, 5% CO2. HT-22, C6, and RGC-5 cells were plated at a density of 50,000, 35,000, and 10,000 cells/ml, respectively, in 96-well plates. Wells were pre-treated with cyclopentenone PGs at various times prior to being subjected to glutamate, hydrogen peroxide (H2O2), or BSO insults.
The WY-14643, Ciglitazone, Troglitazone, 9-cis retinoic acid, and 15d-PGJ2 compounds were purchased from Biomol (Plymouth Meeting, Pa.). L-165041 and L-783483 were kindly provided by Merck Laboratories. The cell lines used were HT-22, an immortalized mouse hippocampal cell line, and SK—N—SH, a human neuroblastoma cell line. The HT-22 cells were obtained from David Schubert (Salk Institute, San Diego, Calif.). The HT-22 line was originally selected from HT-4 cells based on glutamate sensitivity. HT-4 cells were immortalized from primary hippocampal neurons using a temperature-sensitive SV-40 T antigen (Morimoto and Koshland, 1990). SK—N—SH were obtained from ATCC (Manassas, Va.). HT-22 and SK—N—SH cells were grown to confluence in DMEM and RPMI-1640 media, respectively, and supplemented with 10% charcoal/dextran-treated fetal bovine serum (FBS), and 5 mg/ml gentamycin at 37° C. under 95% air, 5% CO2. HT-22 cells were plated at a density of 50,000 cells/ml (5,000 cells/well), and SK—N—SH were plated at a density of 120,000 to 150,000 cells/ml (12,000 to 15,000 cells/well) in 96-well plates. In most studies, wells were pre-treated with PPAR ligands over a wide dose range at various times prior to being subjected to either glutamate, hydrogen peroxide (H2O2), or serum deprivation insults. In some studies, the insults were applied prior to the addition of the PPAR ligand. […]

[2] = tested on: RGC-5 cells; assay: RGC-5 glutamate cytotoxicity; format: cell-based; conditions: dose dependent manner
Protocol: The in vitro model used for oxidative cell death was based upon glutamate, hydrogen peroxide, and buthionine sulfoximine (“BSO”) administration to HT-22 mouse hippocampal, C6 rat glioma, and RGC-5 retinal ganglion cell lines. The ease that the above cell lines are cultured is well known in the art of cell culture. Additionally, these cell lines are suitable for screening a various number of compounds described in the present invention.
Although not wanting to be bound by theory, the toxicity of glutamate in HT-22 (32) and C6 glioma (33) cell lines is mediated through oxidative stress. HT-22 cells lack ionotropic N-methyl-D-aspartate (“NMDA”) glutamate receptors, and the glutamate-induced cell death appears to occur via a slow onset oxidative stress (32,34,35). Glutamate blocks cystine uptake by inhibiting the glutamate/cystine antiporter in both HT-22 (32) and C6 glioma (33) cell lines. […] In some of the experiments, the viability of cells was determined using 2.5 μM calcein AM assay in phosphate-buffered saline (PBS 1×). After 25 minutes of incubation, live cells were distinguished by the presence of intracellular esterase activity, which cleaves the calcein AM dye, producing a bright green fluorescence, as shown in FIG. 22. Viability was measured in Relative Fluorescent Units (“RFU”), and expressed as percentage of vehicle-treated control values. […]

Row | SMILES | neuroprotection after withdrawal of compound-containing medium [1] | concentration at which toxicity was observed [1] | neuroprotection against glutamate insult (cell viability) [1] | neuroprotective effect of prostaglandins against glutamate toxicity ([1]; added 24 h before glutamate (15 mM), viability 15 h later) | neuroprotection when added with or after glutamate ([1]; added at same time as glutamate or up to ten hours thereafter) | exposure time required to achieve significant neuroprotection ([1]; preincubation before glutamate (15 mM), 5 μM) | protection against glutamate toxicity [2] | protection versus time of administration prior to glutamate insult ([1]; administered 0 to 10 hours prior to insult) | time post glutamate insult up to which neuroprotective effects remained unaltered ([1]; post-treatment 0 to 10 hours after glutamate) | protection at 8 and 10 hours post glutamate insult ([1]; post-treatment, extent of protection decreased)
1 | CCCCC/C=C/C=C1/C(=O)C=C[C@@H]1C/C=C\CCCC(=O)O [15d-PGJ2, 15-deoxy-Δ^12,14-PGJ2] | protected in a dose dependent manner | ≥ 10 µM | dose-dependent protection | potent neuroprotective effect | failed to display any neuroprotective effects | four to six | protected | – | – | –
2 | Cc1c(C)c2c(c(C)c1O)CCC(C)(COc1ccc(CC3SC(=O)NC3=O)cc1)O2 (centres unmarked) [troglitazone] | loss of neuroprotection | ≥ 20 µM | dose-dependent protection | – | – | – | protected | equally protective | up to 6 hours | still significantly protected
